Assay results as given in US6054441A, “Oxypurine nucleosides and their congeners, and acyl derivatives thereof, for improvement of hematopoiesis” (priority 1995, dated 2000).

Experiments:
[1] = system: blood cell counts after cyclophosphamide; assay: Hematopoietic recovery after cyclophosphamide (Example 63); assay type: in vivo, Balb-C mice; conditions: for Neutrophils / Platelets / WBC / Spleen: 7 days after CP; for Spleen: 25 mg/kg TriPdG or molar equivalent
Method: Fifty-eight female Balb-C mice weighing approximately 20 grams each received a single injection of cyclophosphamide (250 mg/kg, i.p.), and were then distributed into a vehicle control group (0.2% Tween-80+7.5% DMSO in saline; n=12) or one of five treatment groups:
Vehicle or treatment agents were administered to mice once daily for five days at a volume of 0.4 ml by i.p. injection. TriPdG was given at a dose of 25 mg/kg/treatment. The other four agents were given in doses that are the molar equivalent of 25 mg/kg/treatment of TriPdG. On days 5 and 7 following CP administration half of the animals from each of the six groups were bled and then sacrificed by cervical dislocation. Five untreated mice were also bled and sacrificed to provide data on normal (basal) values. Spleens were removed and weighed, and complete blood cell counts performed.

FDCPmix cells = assay: Proliferation of FDCPmix cells, MTT assay (Example 69); assay type: cell-based; conditions: for inhibition of proliferation: 10 micrograms/ml down; for activity at 0.01 µg/mL / activity at 0.039 µg/mL / activity at 0.156 µg/mL / activity at 0.625 µg/mL / activity at 2.5 µg/mL / activity at 10 µg/mL: 48 h, read-out: Cell proliferation
Method: The FDCPmix cell line was used as a suitable in vitro model for predicting the effects of hematopoietic factors on pluripotential stem cells. These cells can be maintained in an-undifferentiated state in the presence of IL-3 or undergo multi-lineage development in the presence of specific hematopoietic growth factors.
This level of proliferation (100%) served as the control value. Inhibition of proliferation by test compounds was represented as a percent of control.
FDCPmix cells were plated at a density of 5×10^4 cells per well in 96-well plates (5×10^5 /ml) using IMDM medium plus 10% fetal bovine serum. […] Test compounds were added at a decreasing concentrations ranging from 10 micrograms/ml down to 1 nanogram/ml. The test compounds included: 3',5'-O-N^2 -tripalmitoyl-2'-deoxyguanosine, 3',5'-di-O-palmitoyl-2'-deoxyguanosine, 3',5'-O-N^2 -trioctanoyl-2'-deoxyguanosine, 3',5'-di-O-octanoyl-2'-deoxyguanosine, and 3',5'-O-N^2 -trioleyl-2'-deoxyguanosine.

[2] = system: hematopoietic recovery after cyclophosphamide; assay: Hematopoietic recovery after cyclophosphamide (Example 47); assay type: in vivo, Balb/C mice
Method: Cyclophosphamide (CP) (275 mg/kg, i.p.) was administered to 48 Balb/C female mice weighing approximately 20 grams each. Twenty-four hours later and each day thereafter for a total of 6 days, mice were given a 0.4 ml i.p. injection of either physiological saline (controls), benzoylguanosine (2.5 μmoles/mouse/day in 0.2% Tween 80), or palmitoylguanosine (2.5 μmoles/mouse/day in 0.2% Tween 80). On days 7 and 10 following CP administration 8 animals from each of the 3 groups were bled and then were sacrificed by cervical dislocation. Spleens were removed and weighed, and complete blood cell counts performed.

[3] = system: hematopoietic recovery after cyclophosphamide; assay: Hematopoietic recovery after cyclophosphamide (Example 51); assay type: in vivo, Balb/C mice; conditions: day 5; 2 μmoles/mouse
Method: Cyclophosphamide (CP) (275 mg/kg, i.p.) was administered to 88 Balb/C female mice weighing approximately 20 grams each. Twenty-four hours later and each day thereafter mice were given a 0.4 ml i.p. injection of either Tween-80 (0.2%) (controls), 3'-O-palmitoyldeoxyguanosine (2 μmoles/mouse), butyryldeoxyguanosine (2 μmoles/mouse), palmitoyl-N-isobutyryldeoxyguanosine (2 μmoles/mouse), lauryldeoxyguanosine (2 μmoles/mouse), octanoyldeoxyguanosine (2 μmoles/mouse), and palmitoyldeoxyguanosine (2 μmoles/mouse). On days 5 and 7 following CP administration 6 or 7 animals in each of the 7 groups were bled and then sacrificed by cervical dislocation. Spleens were removed and weighed, and complete blood cell counts performed.

[4] = system: hematopoiesis in normal mice; assay: Hematopoiesis in normal mice (Example 56); assay type: in vivo, Balb/C mice; conditions: femoral bone marrow; day 5; 2.6 μmoles/mouse, 4 days
Method: Normal Balb/C female mice weighing approximately 20 grams each were given a daily 0.4 ml i.p. injection of either physiological saline (controls), palmitoylguanosine (2.6 μmoles/mouse), palmitoyldeoxyguanosine (2.6 μmoles/mouse), monopalmitoylguanosine 2',3'-acyclic dialcohol (2.6 μmoles/mouse), and palmitoyl-8-bromoguanosine (2.6 μmoles/mouse) for 4 days. On the fifth day all 3 animals in each of the 5 groups were bled and then sacrificed by cervical dislocation. Spleens were removed and weighed, and complete blood cell counts performed. Femoral bone marrow from each mouse was collected and a differential cell count performed on marrow smears.

[5] = system: hematopoietic recovery after cyclophosphamide; assay: Hematopoietic recovery after cyclophosphamide (Example 48); assay type: in vivo, Balb/C mice; conditions: day 7; vs controls
Method: Cyclophosphamide (CP) (275 mg/kg, i.p.) was administered to 36 Balb/C female mice weighing approximately 20 grams each. Twenty four hours later and each day thereafter for a total of 4 or 6 days, mice were given a 0.4 ml i.p. injection of either physiological saline (controls), palmitoyldeoxyinosine (2.5 μmoles/mouse), or palmitoylxanthosine (2.5 μmoles/mouse). On days 5 and 7 following CP administration 6 of the 12 animals in each of the 3 groups were bled and then sacrificed by cervical dislocation. Spleens were removed and weighed, and complete blood cell counts performed.

Compound | Neutrophils [1] | Platelets [1] [K/μl] | WBC [1] | Spleen [1] [mg] | inhibition of proliferation (FDCPmix cells) | activity at 0.01 µg/mL (FDCPmix cells) [%] | activity at 0.039 µg/mL (FDCPmix cells) [%] | activity at 0.156 µg/mL (FDCPmix cells) [%] | activity at 0.625 µg/mL (FDCPmix cells) [%] | activity at 2.5 µg/mL (FDCPmix cells) [%] | activity at 10 µg/mL (FDCPmix cells) [%] | further results
CCCCCCCC/C=C\CCCCCCCC(=O)Nc1nc2c(ncn2[C@H]2C[C@H](OC(=O)CCCCCCC/C=C\CCCCCCCC)[C@@H](COC(=O)CCCCCCC/C=C\CCCCCCCC)O2)c(=O)[nH]1 [TriOdG, 3',5'-O-N^2-trioleyl-2'-deoxyguanosine] | 2.7 ± .4 K/μl | 741 ± 54 | 5.2 ± .4 K/μl | 59 ± 5 | little or no inhibitory effects | 92 ± 5 | 91 ± 5 | 92 ± 5 | 98 ± 6 | 80 ± 2 | 110 ± 3 | lymphocyte counts ([1]; day 7 after CP, vs control): increased both platelet and lymphocyte counts
CCCCCCCCCCCCCCCCCC(=O)Nc1nc2c(ncn2[C@H]2C[C@H](OC(=O)CCCCCCCCCCCCCCCCC)[C@@H](COC(=O)CCCCCCCCCCCCCCCCC)O2)c(=O)[nH]1 [TriSdG, 3',5'-O-N^2-tristearyl-2'-deoxyguanosine] | 5.4 ± .5 K/μl | 498 ± 27 | 7.6 ± .4 K/μl | 85 ± 9 | – | – | – | – | – | – | – | –
Benzoylguanosine | – | – | – | – | – | – | – | – | – | – | – | Neutrophils ([2]; day 7, 2.5 μmoles/mouse/day): significantly elevated; spleen weight ([2]; day 7, 2.5 μmoles/mouse/day): significantly elevated; total white blood cells ([2]; day 7, 2.5 μmoles/mouse/day): significantly elevated; platelet number ([2]; day 10): significantly greater
CCCCCCCCCCCCCCCC(=O)O[C@H]1C[C@H](n2cnc3c(=O)[nH]c(N)nc32)O[C@@H]1CO [3'-O-palmitoyldeoxyguanosine, 3'-O-Palmitoyl-2'-deoxyguanosine] | – | – | – | – | – | – | – | – | – | – | – | spleen weight [3]: significantly elevated; total neutrophil counts [3]: significantly elevated
CCCCCCCC(=O)OC[C@H]1O[C@@H](n2cnc3c(=O)[nH]c(N)nc32)C[C@@H]1OC(=O)CCCCCCC [DiOctdG, 3',5'-di-O-octanoyl-2'-deoxyguanosine] | – | – | – | – | little or no inhibitory effects | 84 ± 2 | 86 ± 1 | 84 ± 6 | 93 ± 1 | 78 ± 2 | 100 ± 0.3 | –
CCCCCCCCCCCCCCCC(=O)OC[C@H]1O[C@@H](n2c(Br)nc3c(=O)[nH]c(N)nc32)[C@H](O)[C@@H]1O [palmitoyl-8-bromoguanosine] | – | – | – | – | – | – | – | – | – | – | – | number of myelocytes [4]: significantly greater
CCCCCCCC(=O)Nc1nc2c(ncn2[C@H]2C[C@H](OC(=O)CCCCCCC)[C@@H](COC(=O)CCCCCCC)O2)c(=O)[nH]1 [TriOctdG, 3',5'-O-N^2-trioctanoyl-2'-deoxyguanosine] | – | – | – | – | little or no inhibitory effects | 87 ± 4 | 85 ± 2 | 89 ± 6 | 86 ± 2 | 96 ± 0.1 | 107 ± 1 | –
Palmitoylxanthosine | – | – | – | – | – | – | – | – | – | – | – | Neutrophils [5]: significantly increased; spleen weight [5]: significantly increased; total leukocytes [5]: significantly increased
CCCCCCCCCCCCCCCC(=O)OC[C@H]1O[C@@H](n2cnc3c(=O)[nH]c(NC(=O)C(C)C)nc32)C[C@@H]1O [NibuPdG, N^2-isobutyryl-5'-O-palmitoyl-2'-deoxyguanosine] | 2.2 ± .5 K/μl | 649 ± 23 | 4.4 ± .5 K/μl | 69 ± 6 | – | – | – | – | – | – | – | spleen weight [3]: significantly elevated; total neutrophil counts [3]: significantly elevated
